Test results as given in patent publication US20130129686A1, “Reducing Inflammation Using Cell Therapy” (Regents of the University, priority 2009, published 2013).
Entries after “also recorded” stand apart in the source; their conditions may differ.

Key:
[1] = tested on: allogeneic T cell proliferation; assay: Mixed leukocyte reaction (MLR), 3H-thymidine uptake; format: cell-based, mouse
From the text: Lymph nodes (LNs) were harvested from B6 mice and T-cells were purified using by negative selection using PE-conjugated anti-CD19, anti-CD11c, anti-NK1.1 and anti-PE magnetic beads (Miltenyi Biotech). Purity was routinely >95%. Spleens were harvested from BALB/c mice, T-cell depleted (anti-Thy1.1), and irradiated (3000 cGy). B6 T-cells were mixed at a 1:1 ratio with BALB/c splenic stimulators and plated in a 96 well round bottom plate (10^5 T-cells/well) or in the lower chamber of a 24 well plate TransWell insert (10^6 T-cells/well). MAPCs were irradiated (3000 cGy) and plated in a 96 well round bottom plate (10^4/well, 1:10) or in a 24 well TransWell plate (10^5/well, 1:10). Cells were incubated in “T-cell media” in 200 μl/well (96 well) or 800 μl/well (24 well) of RPMI 1640 (Invitrogen, Carlsbad, Calif.) supplemented with 10% FCS, […] 2-ME (Sigma-Aldrich), 10 mM HEPES buffer (Invitrogen), 1 mM sodium pyruvate (Invitrogen), amino acid supplements (1.5 mM L-glutamine, L-arginine, L-asparagine) (Sigma-Aldrich), 100 U/ml penicillin, […] streptomycin (Sigma-Aldrich). Cells were pulsed with ^3H-thymidine (1 μCi/well) 16-18 hours prior to harvesting and counted in the absence of scintillation fluid on a β-plate reader. […] Trypan blue exclusion was used to assess effects on live cells. […]

[2] = cited from earlier work
[3] = tested on: PGE2; assay: PGE2 quantification in MAPC culture supernatant (PGE2 assay kit); format: cell-based, mouse; conditions: overnight treatment of MAPCs, 5 μM, for the period of the MLR culture (9 days)
From the text: Lymph nodes (LNs) were harvested from B6 mice and T-cells were purified using by negative selection using PE-conjugated anti-CD19, anti-CD11c, anti-NK1.1 and anti-PE magnetic beads (Miltenyi Biotech). Purity was routinely >95%. Spleens were harvested from BALB/c mice, T-cell depleted (anti-Thy1.1), and irradiated (3000 cGy). B6 T-cells were mixed at a 1:1 ratio with BALB/c splenic stimulators and plated in a 96 well round bottom plate (10^5 T-cells/well) or in the lower chamber of a 24 well plate TransWell insert (10^6 T-cells/well). MAPCs were irradiated (3000 cGy) and plated in a 96 well round bottom plate (10^4/well, 1:10) or in a 24 well TransWell plate (10^5/well, 1:10). […] Cells were pulsed with ^3H-thymidine (1 μCi/well) 16-18 hours prior to harvesting and counted in the absence of scintillation fluid on a β-plate reader. […]
Quantitative determination of PGE2 in cell culture supernatants was performed using PGE2 assay kit (R&D Systems) by following manufacturer's instructions. Quantities of IL-10, TGF-β, IL-2, TNF-α, IFN-γ, and IL-12 were determined using Luminex technology (R&D Systems). […] The color development is stopped, and the absorbance is read at 450 nm. […]

SMILES: Cn1cc(C[C@@H](N)C(=O)O)c2ccccc21 [1MT, 1-methyl-D-tryptophan]
- additive effect with indomethacin pre-treatment of MAPCs ([1]; 200 μM 1MT in co-culture plus MAPCs pre-treated with 5 μM indomethacin): little/no additive effect
- T-cell proliferation in MLR-MAPC co-cultures with IDO inhibitor ([1]; 200 μM in culture media): did not increase T-cell proliferation; also recorded: did not affect T-cell proliferation

SMILES: CCCCC[C@H](O)/C=C/[C@H]1[C@H](O)CC(=O)[C@@H]1C/C=C\CCCC(=O)O [PGE2, prostaglandin E2]
- half-life in vivo [2]: ~30 s

SMILES: COc1ccc2c(c1)c(CC(=O)O)c(C)n2C(=O)c1ccc(Cl)cc1 [indomethacin]
- upstream synthesis of PGE2 by MAPCs [3]: potently inhibited
